The values that follow come from a melting point compilation (Tetko et al.; mined from patent text by program, amines drawn as free bases though some values may be those of a salt).

Broadly, the melting point is the temperature of the solid-liquid transition.

Compound `Cn1c(-c2ccc(Br)cc2)c(OCCOc2ccc(C=C3SC(=O)NC3=O)cc2)c(=O)c2ccccc21` registered a melting point of 151 to 154 °C. For `Clc1cc2c(cc1Cl)Nc1cscc1CN2` the value was 195 to 197 °C. For the compound `CC(C)(C)NC(=O)NCC#N`, the melting point lay within 128 to 132 °C. The result for `COC(=O)c1sc2cc(CCl)ccc2c1C` reads 128 to 129 °C; that for `N#CC(C#N)=C(NCCN1CCCCC1)N1CCC(N2CCCCC2)CC1`, 198 to 200 °C; that for `CC(=O)Oc1ccc(-c2cncnc2Cl)cc1OC(C)=O`, 108 °C. Turning to `CN1CCN(c2nc3ccccc3n2CCOc2ccccc2)CC1`, the melting point lay in the range of 152 to 154 °C. `COc1cc(C(=O)O)ccc1Cc1cccc2ccc(CCCC(=O)N3CCOCC3)cc12` came in with a melting point of 160 to 161 °C. The compound `CSc1cc2n(c1C(=O)c1ccc(Cl)cc1)CCC2C(=O)O` (stereo unspecified) came in with a melting point of 200 to 201 °C. For `O=C(CCc1ccccc1)Nc1cccc(C(=O)NN=C2C(=O)Nc3ccc(I)cc32)c1`, the melting point was determined as 293 °C. The result for `CC(C)c1nc(CN)n(C)c1Sc1cc(Cl)cc(Cl)c1` reads 86 to 87 °C; that for `CC1(CCCOc2ccc([N+](=O)[O-])c(C=C3NC(=O)NC3=O)c2)OCCO1`, 175 to 180 °C.

`CCn1nc(C(N)=O)cc1CC(C)C` gave a melting point of 125 to 126 °C. Compound `CC(C)(C)c1cc(C(=O)NCCc2cccc([N+](=O)[O-])c2)cc(C(C)(C)C)c1O` had a melting point of 195 to 197 °C. For `COc1cc(C(=O)CCCc2ccccc2)cc([N+](=O)[O-])c1O` the value was 120 to 121 °C; for `CSC(=NCCN1CCC(c2noc3cc(F)ccc23)CC1)NC#N`, 148 to 151 °C. For `COC(=O)CCC(=O)c1ccc(-c2ccc(C(F)(F)F)cc2)cc1` the value was 140 to 142 °C; for `COCOc1cc(CO)ccc1OCc1nc(-c2ccco2)oc1C`, 92 to 93 °C; for `CC1(c2ccccc2)Cc2cc(OCC(=O)O)c(Cl)c(Cl)c2C1O` (stereo unspecified), 160 to 162 °C.

`CCCc1c(OCCCS(=O)(=O)c2ccc(C(=O)CCCCC(=O)O)cc2)ccc(C(C)=O)c1O`: the melting point lay in the range of 138 to 140 °C. For `CSc1ncc(Cc2cccs2)c(=O)[nH]1`, the melting point lay within 170 to 172 °C. The result for `COC(=O)C(C)c1cccc(C(=O)c2ccccc2)c1` (stereo unspecified) reads 50 to 52 °C.

`O=C1[C@@H](CCCO)O[C@H](c2ccccc2)c2ccccc2N1Cc1ccccc1` (relative stereo) showed a melting point of 59 to 62 °C. The compound `Cc1ccc(-c2ccc(S(C)(=O)=O)c(F)c2)n1-c1ccc(-c2cscn2)cc1` gave a melting point of 215 °C. For `Cc1ccc(P(c2ccc(C)cc2)c2cccc3c2-c2c(cccc2P(c2ccc(C)cc2)c2ccc(C)cc2)OCCCO3)cc1` the value was 108 to 110 °C; for `COC(=O)COc1ccc(C(C)=O)cc1C`, 51 to 53 °C; for `O=C(Nc1c(Cl)cccc1Cl)c1cccc2cccnc12`, 168 to 169 °C. For `COC(=O)c1ccc(C(=O)Nc2cc3c4c(c2)CCCC4(C)CCC3)cc1` the value was 217 to 218 °C; for `CC(=O)c1ccc(N2CCC(N(C)Cc3ccc(F)cc3)CC2)cc1`, 133 °C. `O=C1Nc2ccc([N+](=O)[O-])cc2C2(c3ccccc3)OCCN12` (stereo unspecified) had a melting point of 275 to 276 °C. For `CCCN(C1=C(O)CC(C2CCCC2)(C2CCCC2)OC1=O)c1cccc(NS(=O)(=O)c2ccccn2)c1` the value was 105 to 107 °C; for `Cn1nc(Nc2cc(-c3ccc(F)c(-c4c(C(N)=O)sc5c4C(O)C(C)(C)C5)c3)nn(C)c2=O)cc1CN1CCC1` (stereo unspecified), 110 to 111 °C. The result for `CCOC(=O)c1[nH]nnc1Nc1ccc(C)cc1` reads 129 to 130 °C; that for `O=[N+]([O-])c1ccc(-c2noc(-c3ccccn3)n2)cc1`, 202 to 203 °C; that for `CC(C)n1c(C(=O)Cl)c(-c2ccc(F)cc2)c2ccccc2c1=O`, 132 to 134 °C. For `CCc1nc2c(c(=O)n(C)c(=O)n2C)n1CCCOc1ccccc1` the value was 107 to 108 °C; for `CCCc1nc2c(N)nc(C)c(C)c2n1CCCCCS(=O)(=O)c1ccccn1`, 143 to 144 °C.

As to `Fc1ccc(C(CCCN2CCN(c3cc4ccccc4cn3)CC2)c2ccc(F)cc2)cc1`, the melting point was in the range of 116 to 118 °C.

`COc1cc2nc(N3CCc4c(cccc4C(=N)N4CCOCC4)C3)[nH]c(=O)c2cc1OC` showed a melting point of 249 to 251 °C.

Regarding `O=C(c1cc(NS(=O)(=O)c2ccccc2)ccn1)N(O)Cc1ccccc1`, the melting point lay within 175 to 180 °C. The result for `COc1cc(-c2cc(=O)c3ccc(OCCCBr)cc3o2)cc(OC)c1OC` reads 156 to 157 °C; that for `CCOC(=O)Cc1cccc(C(=O)c2ccc(Cl)cc2)c1N`, 101 to 102 °C. In turn, `CCOc1cccc(-c2nn(C(C)c3oc4ccccc4c(=O)c3-c3cccc(F)c3)c3ncnc(N)c23)c1` (stereo unspecified) showed a melting point of 162 to 165 °C.

Turning to `CCOC(=O)C(C#N)=CNc1ccc([N+](=O)[O-])cc1`, the melting point was in the range of 227 to 228 °C.

`Clc1nc2ccccc2c2c(CCC3CCNCC3)n(-c3ccccc3)nc12` returned a melting point of 194 °C. The result for `COc1ccc(C2CN(C)Cc3c(N)cccc32)cc1OC` (stereo unspecified) reads 143 to 144 °C; that for `CC(SC1COC(c2ccc(C(=O)Nc3ccc(F)cc3)cc2)OC1)C(O)(Cn1cncn1)c1ccc(F)cc1F` (stereo unspecified), 104 °C; that for `CCCc1nn(C)c2c(=O)[nH]c(-c3cc(S(=O)(=O)N4CCN(C)CC4)ccc3O)nc12`, 283 to 284 °C. For `CC(C)(C)c1ccc(CNC(=O)C(Cc2ccccc2)NC(=O)Nc2n[nH]c(=S)s2)cc1` (stereo unspecified) the value was 213 to 214 °C. The result for `COc1ccc(C2CC(c3cccc(OC)c3)=NN2c2ccc(C(=O)O)cc2)cc1` (stereo unspecified) reads 142 °C. `CSc1nc(Cl)c2cc(Br)ccc2n1` returned a melting point of 124 °C. Consider `COC(=O)C(C)(C)Cc1c(SC(C)(C)C)c2cc(OCc3ccc4cnccc4n3)ccc2n1Cc1ccc(Cl)cc1`, for which the melting point lay in the range of 152 to 155 °C. For `Cc1cccc(C)c1NC(=O)c1ccc(C(F)(F)F)cc1` the value was 206 to 207 °C; for `NC(=O)[C@H]1CCCCCC[C@H](CS)C(=O)N1` (relative stereo), 185 to 192 °C. In turn, `c1cc2c3c(cccc3c1)C(NOCCCn1ccnc1)=N2` registered a melting point of 102 to 104 °C. With `CC(=O)Oc1cccc2oc(C(=O)Nc3ccc(CC4SC(=O)NC4=O)cc3)cc(=O)c12` (stereo unspecified), the melting point lay within 257 to 260 °C. The result for `CCCN(CCCCNc1ncc(Cc2ccnc(O)c2)c(=O)[nH]1)c1ccccn1` reads 138 to 140 °C. For `COC(=O)N(O)c1cccnc1Oc1ccccc1`, the melting point was determined as 140 °C.

In turn, `Cc1ncc2n1-c1ccc(Cl)cc1C(c1ccccc1F)N(C)C2` (stereo unspecified) showed a melting point of 156 to 158 °C. For `OCc1cccc2nc(-c3ccccc3)sc12` the value was 101 to 102 °C; for `CCNC(=O)n1nc(Oc2ncc(C(F)(F)F)cc2Cl)c(CC)c1C`, 101 to 102 °C.
